Reference: patent publication US20110281852A1 (priority 2010, published 2011)

Tests used:
in vitro [1] = conditions: mouse, 3T3-L1 cells during differentiation
Method: Cell culture: 3T3-L1 cells were cultured at 37° C. in a humidified 5% CO2 atmosphere and grown in a culture medium (CM) (DMEM supplemented with 10% FBS, 100 units/ml penicillin and […] streptomycin). Differentiation conditions for 3T3-L1 were as described (Dowell et al, 2000). Briefly, confluent 3T3-L1 cells were maintained in culture medium for 48 hrs (day 0). Cells were placed in Differentiation Medium 1 (DM1) (CM with 167 nM insulin, 520 μM isobutylmethylxanthine (IBMX), and 1 μM dexamethasone) for a further 48 hrs (Day 2). The medium was then changed to differentiation medium 2 (DM2) (CM with 167 nM insulin) for a further 48 hrs (Day 4). The DM2 was then changed every 48 hrs for an additional 4 days (Day 8).
(§1) Culture medium was removed at 24, 48 and 72 hrs and MTT (0.5 mg/ml in pure DMEM, 50 μl/well) was added.

in vitro [2] = conditions: mouse, 3T3-L1 cells during proliferation
Method: as §1

SREBP-1 = assay: Immunoblotting, SREBP-1 protein in 3T3-L1; assay type: cell-based, mouse; conditions: 8 days
Method: Immunoblotting: Protein expression of SREBP-1, PPARγ, and C/EBPα relative to […] was assessed by Western Blot. Total proteins were isolated from 3T3-L1 cells treated with compounds or vehicles for 8 days. The cells were washed twice with PBS, lysed in a HEPES-Tx-PI buffer ([…], 5 mM EDTA, 350 mM Sucrose, 1 μg/ml leupeptin, 1 μg/ml pepstatin, 1% Triton-X, 1 mM PMSF), processed with 25G needles and centrifuged at 12,000 rpm for 5 min. Protein concentration was determined using the Micro BCA Protein Assay Kit (Fisher Scientific, Pittsburgh, Pa., USA) following the manufacturers instructions. 25 μg proteins were loaded and separated by electrophoresis using the BioRad Electrophoretic System (65 V for 7 hour). The proteins were then transferred to nitrocellulose membranes at 40 V overnight. The membrane was blocked for 1 hour at room temperature in 5% nonfat milk in Tris-buffered saline (TBS), then washed with Tween-20-TBS (TTBS, 0.1% Tween-20) three times (15 min, 5 min, 5 min), followed by incubation with primary antibodies SREBP-1 (dilution 1:200), PPARγ (dilution 1:200), C/EBPα (dilution 1:200) (all purchased from Santa Cruz Biotechnology, Santa Cruz, Calif., USA) and […] (dilution 1:1000, Sigma-Aldrich, St. Louis, Mo., USA) at room temperature for 2 hours. […]

GATA-2 = assay: Real-Time RT-PCR, GATA-2 mRNA in epididymal fat of FD mice; assay type: in vivo, mouse
Method: (§2) RNA and protein purification and quantification from epididymal fat tissues: RNA and protein was isolated from 60 mg of epididymal fat tissues with Trizol (Invitrogen, Carlsbad, Calif., USA) following the protocol recommended by the manufacturers. RNA was dissolved in pure water and quantified at 260/280 nm, and sample integrity was checked by 1.5% agarose gel electrophoresis. Protein concentration was determined using the Micro BCA Protein Assay Kit (Fisher Scientific, Pittsburgh, Pa., USA) according to the manufacturer's instructions.
(§3) Quantitative Real-Time RT-PCR: Real-Time reverse transcriptase polymerase chain reaction (RT-PCR) analysis was used to measure mRNA expression of genes PPARγ, C/EBPα, GATA-2 and GATA-3 in the control of β-actin. Total RNA (0.8 μg) from each sample was used for a reverse transcription reaction using the TaqMan Reverse Transcription Reagents (Applied Biosystems, Foster City, Calif., USA) following the manufacturer's instructions. PCR was done using the SYBR green Master Mix (Applied Biosystems, Foster City, Calif., USA) following the manufacturer's instructions. The cycling conditions of amplification were as follows: an initial step of denaturation at 95° C. for 10 min, 40 cycles of denaturation at 95° C. for 30 s, annealing at 55° C. for 30 s, and elongation at 72° C. for 30 s. Real-Time PCR was performed using Mx3000P Real-Time Thermocyclers (Stratagene, La Jolla, Calif., USA). The relative mRNA levels of these genes were calculated by 2-delta delta CT method and normalized with control-treated groups.

PPARγ = assay: Real-Time RT-PCR, PPARγ mRNA in epididymal fat of FD mice; assay type: in vivo, mouse
Method: as §2, §3

Work on `COc1ccc2cc3[n+](cc2c1OC)CCc1cc2c(cc1-3)OCO2.[Cl-]` [berberine, Berberine (Chloride Form)] yielded a cytotoxicity at 2 days, 8 μM (in vitro [1]) of 15.6%, a cytotoxicity at 4 days, 8 μM (in vitro [1]) of 12.8% and a cytotoxicity at 6 days, 8 μM (in vitro [1]) of 12.6%. For the same compound, the cytotoxicity at 8 days, 8 μM (in vitro [1]) was 11.4%, the cytotoxicity at 1 day, 8 μM (in vitro [2]) was 13.2% and the cytotoxicity at 2 days, 8 μM (in vitro [2]) was 13.8%. For the same compound, the cytotoxicity at 3 days, 8 μM (in vitro [2]) was 18.6%, the “decrease of SREBP-1 protein expression vs clozapine treated group” value (SREBP-1; 8 μM berberine + 15 μM clozapine) was 64.6% and the “decrease of SREBP-1 protein expression vs risperidone treated group” value (SREBP-1; 8 μM berberine + 50 μM risperidone) was 60.4%. For the same compound, the “GATA-2 mRNA expression increased to” value (GATA-2; 0.75 mg/kg/day) was 2.7 fold, the “GATA-2 mRNA expression increased to” value (GATA-2; 1.5 mg/kg/day) was 3.4 fold and the “GATA-2 mRNA expression increased to” value (GATA-2; 3 mg/kg/day) was 3.7 fold. The “reduction of PPARγ mRNA expression vs control treated group” value (“reduction of PPARγ mRNA expression” below) (PPARγ; 0.75 mg/kg/day) was 56.1%, the “reduction of PPARγ mRNA expression” value (PPARγ; 1.5 mg/kg/day) was 57.7% and the “reduction of PPARγ mRNA expression” value (PPARγ; 3 mg/kg/day) was 78.3%.
